COc1nc(Sc2c([N+](=O)[O-])ncn2C)c2c(ncn2C)n1
logP: 1.45

Cn1cnc([N+](=O)[O-])c1Sc1nc(SCc2ccccc2)nc2ncn(C)c12
logP: 2.91

Cn1cnc([N+](=O)[O-])c1Sc1nc2ncn(C)c2c(=S)[nH]1
logP: 1.26

C=CCOc1nc(Sc2c([N+](=O)[O-])ncn2C)c2c(ncn2C)n1
logP: 2.02

Cn1cnc([N+](=O)[O-])c1Sc1nc(=S)[nH]c2ncn(C)c12
logP: 1.19

Cn1cnc([N+](=O)[O-])c1Sc1nc(=O)[nH]c2ncn(C)c12
logP: 1.12

Cn1cnc([N+](=O)[O-])c1Sc1nc(Sc2c([N+](=O)[O-])ncn2C)c2c(ncn2C)n1
logP: 1.68

C=CCSc1nc(Sc2c([N+](=O)[O-])ncn2C)c2c(ncn2C)n1
logP: 2.43

Cn1cnc([N+](=O)[O-])c1Sc1nc(OCc2ccccc2)nc2ncn(C)c12
logP: 2.67

CSc1nc(Sc2c([N+](=O)[O-])ncn2C)c2c(ncn2C)n1
logP: 1.6

CN1C=NC([N+](=O)[O-])C1Sc1nc2ncn(C)c2c(=O)[nH]1 (configuration not stated)
logP: 1.21

Cn1cnc([N+](=O)[O-])c1Sc1nc(Cl)nc2ncn(C)c12
logP: 1.5
